# Experiments:
# [1] = target: Receptor tyrosine-protein kinase erbB-2 (Homo sapiens, UniProt P04626); test: biochemical; assay type: cell-based, Insect cells;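 also: inhibition of HER2 kinase enzyme activity, measured with Poly(Glu:Tyr) as the phosphorylation substrate; in other assays of this panel Not Active means under 50% inhibition at 10 µM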
# [2] = target: T1, Alpha-2A adrenergic receptor (Homo sapiens, UniProt P08913); assay type: cell membranes, Sf9, Membrane; settings: sf9; also: in other assays of this panel Not Active means under 50% inhibition at 10 µM
# T1 sequence (P08913 whole entry): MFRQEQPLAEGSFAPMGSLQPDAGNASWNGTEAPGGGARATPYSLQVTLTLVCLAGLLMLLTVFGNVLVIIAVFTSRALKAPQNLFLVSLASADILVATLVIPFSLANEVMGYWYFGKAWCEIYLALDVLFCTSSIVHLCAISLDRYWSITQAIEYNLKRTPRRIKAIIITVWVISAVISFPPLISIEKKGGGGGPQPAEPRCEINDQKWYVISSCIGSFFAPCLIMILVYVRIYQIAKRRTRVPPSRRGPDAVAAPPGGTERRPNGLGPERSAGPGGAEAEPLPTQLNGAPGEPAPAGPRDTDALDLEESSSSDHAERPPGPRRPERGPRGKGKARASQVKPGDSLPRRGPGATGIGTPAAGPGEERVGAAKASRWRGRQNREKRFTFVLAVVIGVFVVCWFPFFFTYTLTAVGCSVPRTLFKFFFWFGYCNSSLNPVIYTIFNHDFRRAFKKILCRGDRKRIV
# [3] = target: T2, Amine oxidase [flavin-containing] A (Homo sapiens, UniProt P21397); test: DRUGMATRIX: Monoamine Oxidase MAO-A enzyme inhibition (substrate: Kynuramine); set-up: species or system BTI-TN-5B1-4; settings: bti-tn-5b1-4; Not Active = under 50% inhibition at 10 µM
# T2 sequence (P21397 whole entry): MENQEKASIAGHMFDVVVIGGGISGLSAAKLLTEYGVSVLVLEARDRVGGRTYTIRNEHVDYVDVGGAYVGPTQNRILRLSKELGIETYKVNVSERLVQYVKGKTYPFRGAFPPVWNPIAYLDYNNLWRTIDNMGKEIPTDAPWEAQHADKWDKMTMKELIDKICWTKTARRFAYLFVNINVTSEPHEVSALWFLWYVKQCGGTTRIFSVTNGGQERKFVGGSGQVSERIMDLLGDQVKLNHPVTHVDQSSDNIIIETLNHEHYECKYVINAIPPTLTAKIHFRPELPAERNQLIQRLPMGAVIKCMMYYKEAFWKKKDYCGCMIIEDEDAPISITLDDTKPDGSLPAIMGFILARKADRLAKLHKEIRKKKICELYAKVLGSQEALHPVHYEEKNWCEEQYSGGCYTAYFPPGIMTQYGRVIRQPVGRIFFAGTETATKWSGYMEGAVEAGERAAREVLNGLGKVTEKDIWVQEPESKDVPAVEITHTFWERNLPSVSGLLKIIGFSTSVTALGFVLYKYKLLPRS
# [4] = target: T3, Receptor-type tyrosine-protein phosphatase C (Homo sapiens, UniProt P08575); set-up: species or system Escherichia coli;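 also: inhibition of CD45 enzyme activity measured using DiFMUP as substrate; in other assays of this panel Not Active means under 50% inhibition at 10 µM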
# T3 sequence (P08575 whole entry): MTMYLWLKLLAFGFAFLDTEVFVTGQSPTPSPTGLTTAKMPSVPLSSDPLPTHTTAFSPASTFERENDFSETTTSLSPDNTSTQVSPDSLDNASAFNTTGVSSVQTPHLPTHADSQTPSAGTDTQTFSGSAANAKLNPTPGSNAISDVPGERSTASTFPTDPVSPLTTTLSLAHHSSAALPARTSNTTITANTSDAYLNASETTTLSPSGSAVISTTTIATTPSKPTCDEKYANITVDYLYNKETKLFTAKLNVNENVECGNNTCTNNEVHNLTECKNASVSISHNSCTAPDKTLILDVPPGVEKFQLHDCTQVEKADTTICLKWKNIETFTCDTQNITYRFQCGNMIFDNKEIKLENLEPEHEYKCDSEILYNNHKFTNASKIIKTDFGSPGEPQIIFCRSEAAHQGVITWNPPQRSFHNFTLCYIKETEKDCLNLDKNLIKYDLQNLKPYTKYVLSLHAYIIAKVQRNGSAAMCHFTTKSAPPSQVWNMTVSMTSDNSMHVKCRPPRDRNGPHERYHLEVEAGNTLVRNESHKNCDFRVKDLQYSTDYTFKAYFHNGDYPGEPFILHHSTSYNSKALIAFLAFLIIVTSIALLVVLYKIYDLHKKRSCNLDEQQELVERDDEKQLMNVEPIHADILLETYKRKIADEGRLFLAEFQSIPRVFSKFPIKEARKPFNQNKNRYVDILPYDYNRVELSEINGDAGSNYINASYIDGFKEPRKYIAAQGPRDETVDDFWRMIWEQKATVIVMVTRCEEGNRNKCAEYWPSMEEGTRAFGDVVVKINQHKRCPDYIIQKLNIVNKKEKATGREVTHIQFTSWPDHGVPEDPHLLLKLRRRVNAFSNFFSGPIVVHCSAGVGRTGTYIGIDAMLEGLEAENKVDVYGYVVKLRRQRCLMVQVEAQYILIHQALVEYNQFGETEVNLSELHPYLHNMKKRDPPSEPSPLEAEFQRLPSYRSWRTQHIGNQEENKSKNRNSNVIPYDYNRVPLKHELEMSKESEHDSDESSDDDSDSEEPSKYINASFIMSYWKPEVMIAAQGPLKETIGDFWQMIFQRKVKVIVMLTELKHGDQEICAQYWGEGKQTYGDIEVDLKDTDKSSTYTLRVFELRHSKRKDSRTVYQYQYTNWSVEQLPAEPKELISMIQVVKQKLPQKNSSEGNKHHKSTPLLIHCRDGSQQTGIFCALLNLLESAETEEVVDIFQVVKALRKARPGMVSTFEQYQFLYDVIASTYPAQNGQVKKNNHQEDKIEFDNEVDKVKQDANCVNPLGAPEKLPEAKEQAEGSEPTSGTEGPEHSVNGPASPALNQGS
# [5] = DRUGMATRIX: Nicotinic Acetylcholine radioligand binding (ligand: [125I] Epibatidine); assay type: cell membranes, Membrane; settings: imr-32; Not Active = under 50% inhibition at 10 µM
Molecule,IC50 ([1]; insect cells),IC50 [2],IC50 [3],IC50 [4],IC50 [5],Ki [5],Ki ([1]; insect cells),IC50 ([2]; read-out: IC50) [µM],Ki ([2]; read-out: Ki) [µM],Ki [3],Ki [4],IC50 ([1]; read-out: IC50) [µM],Ki [2]
COc1cc(C(=O)NC2CCCNC2)cc(OC)c1OC (centres undefined) [TROXIPIDE],Not Active,Not Active,Not Active,Not Active,Not Active,Not Active,–,–,–,–,–,–,–
IVERMECTIN,Not Active,–,Not Active,Not Active,Not Active,Not Active,Not Active,5.84,2.19,Not Active,Not Active,–,–
CC1(C)[C@H]2CC[C@]1(C)C(=O)C2 [(-)-CAMPHOR],Not Active,Not Active,Not Active,Not Active,Not Active,Not Active,–,–,–,–,–,–,–
Nc1ccc(S(N)(=O)=O)cc1 [SULFANILAMIDE],Not Active,Not Active,Not Active,Not Active,Not Active,Not Active,–,–,–,–,–,–,–
c1ccc2[nH]c(-c3cscn3)nc2c1 [THIABENDAZOLE],Not Active,Not Active,Not Active,Not Active,Not Active,Not Active,–,–,–,–,–,–,–
CC[C@H]1OC(=O)[C@H](C)[C@@H](O[C@H]2C[C@@](C)(OC)[C@@H](O)[C@H](C)O2)[C@H](C)[C@@H](O[C@@H]2O[C@H](C)C[C@H](N(C)C)[C@H]2O)[C@](C)(O)C[C@@H](C)/C(=N\OCOCCOC)[C@H](C)[C@@H](O)[C@]1(C)O [ROXITHROMYCIN],Not Active,Not Active,Not Active,Not Active,Not Active,Not Active,–,–,–,–,–,–,–
CCOC(=O)[C@H](CCc1ccccc1)N[C@@H](C)C(=O)N1[C@H](C(=O)O)C[C@@H]2CCC[C@@H]21,Not Active,Not Active,Not Active,Not Active,Not Active,Not Active,–,–,–,–,–,–,–
NNC(=O)c1ccncc1 [ISONIAZID],Not Active,Not Active,Not Active,Not Active,Not Active,Not Active,–,–,–,–,–,–,–
Nc1nnc(-c2cccc(Cl)c2Cl)c(N)n1 [LAMOTRIGINE],Not Active,Not Active,Not Active,Not Active,Not Active,Not Active,–,–,–,–,–,–,–
C[C@]12Cc3c[nH]nc3C[C@@H]1CC[C@@H]1[C@@H]2CC[C@@]2(C)[C@H]1CC[C@]2(C)O [STANOZOLOL],Not Active,Not Active,Not Active,Not Active,Not Active,Not Active,–,–,–,–,–,–,–
CC1=C(/C=C/C(C)=C/C=C/C(C)=C\C(=O)O)C(C)(C)CCC1 [ISOTRETINOIN],Not Active,Not Active,Not Active,Not Active,Not Active,Not Active,–,–,–,–,–,–,–
NC(CO)(CO)CO [TROMETHAMINE],Not Active,Not Active,Not Active,Not Active,Not Active,Not Active,–,–,–,–,–,–,–
Cc1ccc(C(=O)C(C)CN2CCCCC2)cc1 (centres undefined) [TOLPERISONE],Not Active,Not Active,Not Active,Not Active,Not Active,Not Active,–,–,–,–,–,–,–
CN(N=O)C(=O)N[C@@H](C=O)[C@@H](O)[C@H](O)[C@H](O)CO [STREPTOZOCIN],Not Active,Not Active,Not Active,Not Active,Not Active,Not Active,–,–,–,–,–,–,–
NC(=O)c1ncn([C@@H]2O[C@H](CO)[C@@H](O)[C@H]2O)n1 [RIBAVIRIN],Not Active,Not Active,Not Active,Not Active,Not Active,Not Active,–,–,–,–,–,–,–
Oc1c(I)cc(I)c2cccnc12 [IODOQUINOL],–,Not Active,Not Active,Not Active,Not Active,Not Active,–,–,–,–,–,8.58,–
CN1[C@@H]2CC[C@H]1C[C@@H](OC(=O)c1c[nH]c3ccccc13)C2 [TROPISETRON],Not Active,Not Active,Not Active,Not Active,Not Active,Not Active,–,–,–,–,–,–,–
NC(=O)c1ccccc1O [SALICYLAMIDE],Not Active,Not Active,Not Active,Not Active,Not Active,Not Active,–,–,–,–,–,–,–
COC(=O)C1=C(C)NC(C)=C(C(=O)OC)C1c1ccccc1[N+](=O)[O-] [NIFEDIPINE],Not Active,Not Active,Not Active,Not Active,Not Active,Not Active,–,–,–,–,–,–,–
O=[N+]([O-])c1cc([As](=O)(O)O)ccc1O [ROXARSONE],Not Active,Not Active,Not Active,Not Active,Not Active,Not Active,Not Active,–,–,Not Active,Not Active,–,Not Active
NCCCC[C@H](N[C@@H](CCc1ccccc1)C(=O)O)C(=O)N1CCC[C@H]1C(=O)O [LISINOPRIL ANHYDROUS],Not Active,Not Active,Not Active,Not Active,Not Active,Not Active,–,–,–,–,–,–,–
